# Measurements: patent US20170172953A1, “SELF-ASSEMBLING DRUG DELIVERY VEHICLES WITH IONICALLY CROSS-LINKED DRUGS” (WILLIAM MARSH RICE UNIVERSITY, priority 2014, published 2017)
# “Also recorded” adds a separate entry of the source.
# Key:
# [1] = Suramin drug loading and release from MDP hydrogel into HBSS; type: physicochemical
# Procedure: Suramin was dissolved in 0.9% saline and loaded into MDP hydrogel (100 μL of SLac dissolved in 298 mM sucrose+100 μL of drug/saline) in microcentrifuge tubes. 1 mL of release media (HBSS) was added to gels placed in a humidified 5% CO2 cell culture incubator at 37° C. 200 μL aliquots of release media were assayed, with replenishment, daily for 30 days. To determine short term release kinetics, in a separate setup, aliquots were assayed at 1, 2, 4, 8, 12, 24, 48 and 72 hr. Concentration of drug was determined using UV spectrophotometry at 313 nm, n=5. Mass release data were plotted as a function of cumulative release of drug in Sigmaplot. Drug release was modeled using the Korsmeyer-Peppas equation.
# [2] = Parallel plate rheometry of crosslinked SLac peptide hydrogels; type: physicochemical; details: drug as crosslinker of 1 w % SLac hydrogel, pH 7.4
# Procedure: Peptide solutions were made by dissolving lyophilized SLac in 298 mM sucrose-water at a concentration of 2 w %, pH 7.4. Hydrogels were constructed by addition of Hank's balanced salt solution (HBSS) at a 1:1 ratio. Multivalent drugs were added at similar concentrations, approximating physiological doses, to SLac solutions with final concentrations of: SLac—0.4 mM (1 w %); concentration of positive lysine charges—0.8 mM; suramin—3.8 mM (0.5 w %) or 0.38 mM (0.05 w %); trypan blue—3.2 mM (0.2 w %); heparin ˜2.78 mM (5 w %); clodronate disodium—3.4 mM; phosphate buffer—38 mM and 5 mM; and 0.9% saline. Negatively charged polyvalent ions in buffer solution facilitated intermolecular ionic interactions with lysine residues, crosslinking the hydrogel. Rheological behavior of peptide hydrogels was determined using an 8 mm parallel plate geometry at a gap of 250 μm. 50 μL of hydrogel was constructed and, within 30 min, placed on stainless steel plates of a rheometer. A frequency sweep (0.1-100 Hz, at constant 1% strain), strain sweep (0-1000%/strain, at 1 Hz) and shear recovery (1% strain for 30 min, 100% strain for 60 s, 1% strain for 30 min) were performed. We ensured the phase angle δ≦90° to ensure no slipping.
smiles,measurement,setting,value
Cc1ccc(C(=O)Nc2ccc(S(=O)(=O)O)c3cc(S(=O)(=O)O)cc(S(=O)(=O)O)c23)cc1NC(=O)c1cccc(NC(=O)Nc2cccc(C(=O)Nc3cc(C(=O)Nc4ccc(S(=O)(=O)O)c5cc(S(=O)(=O)O)cc(S(=O)(=O)O)c45)ccc3C)c2)c1 [suramin],mechanism of release,[1]; 1 mg/mL loaded gels,non-Fickian diffusion/Case II transport dependent
same,release exponent (t) of Korsmeyer-Peppas model,[1]; 1 mg/mL loaded gels,≈ 1.0
same,mechanism of release,[1]; 10 mg/mL loaded gels,diffusion dependent
same,release exponent (t) of Korsmeyer-Peppas model,[1]; 10 mg/mL loaded gels,≈ 0.5
same,Maximum cumulative suramin concentration,[1]; high loading,0.6 mg/mL
same,Maximum cumulative suramin concentration,[1]; low loading,0.04 mg/mL
same,drug release,"[1]; over a 20 day period, from SLac-based scaffolds",approximately 50%
same,retention of drug ionically cross-linked,[1]; over a period of 30 days,up to 40%
same,drug releasing from hydrogel scaffolds,"[1]; over the first 30 days, depending on loading concentration",40-60%
same,"mechanical strength, storage modulus G′ / loss modulus G″",[2],order of magnitude increase in mechanical strength with increase in concentration; also recorded: an order of magnitude higher G′/G″
